# Like-named read-outs stand apart in the source and are kept apart here.
# Experiments:
# MOLT-4 = test: NCI-60 cytotoxicity screen; assay type: cell-based
# HOP-62 = test: NCI-60 cytotoxicity screen; assay type: cell-based
# NCI-H322M = test: NCI-60 cytotoxicity screen; assay type: cell-based
# HCT-116 = test: NCI-60 cytotoxicity screen; assay type: cell-based
# HT29 = test: NCI-60 cytotoxicity screen; assay type: cell-based
# SF-539 = test: NCI-60 cytotoxicity screen; assay type: cell-based
# LOX IMVI = test: NCI-60 cytotoxicity screen; assay type: cell-based
# MALME-3M = test: NCI-60 cytotoxicity screen; assay type: cell-based
# IGROV1 = test: NCI-60 cytotoxicity screen; assay type: cell-based
# NCI/ADR-RES = test: NCI-60 cytotoxicity screen; assay type: cell-based
# ACHN [1] = test: NCI-60 cytotoxicity screen; assay type: cell-based
# TK-10 = test: NCI-60 cytotoxicity screen; assay type: cell-based
# DU-145 [2] = test: NCI-60 cytotoxicity screen; assay type: cell-based
# U251 = test: JFCR-39 cytotoxicity screen; assay type: cell-based
# A549 = test: JFCR-39 cytotoxicity screen; assay type: cell-based
# DMS273 = test: JFCR-39 cytotoxicity screen; assay type: cell-based
# DMS114 = test: JFCR-39 cytotoxicity screen; assay type: cell-based
# ACHN [3] = test: JFCR-39 cytotoxicity screen; assay type: cell-based
# MKN7 = test: JFCR-39 cytotoxicity screen; assay type: cell-based
# MKN74 = test: JFCR-39 cytotoxicity screen; assay type: cell-based
# DU-145 [4] = test: JFCR-39 cytotoxicity screen; assay type: cell-based
# [5] = test system: JFCR 39 human cancer cell lines; test: JFCR-39 screen, means, ranges and selectivity over panels; assay type: cell-based; details: for GI50: Homo sapiens
# Method: Both NSC745885 and NSC757963 satisfied the pre-determined threshold inhibition criteria of the NCI-60 One-Dose Screening, so they were tested against the panels of 60 cancer cell lines of NCI (NCI-60) and 39 cancer cell lines of JFCR (JFCR-39), each cell line was tested at five small doses of our compounds. Results are expressed as the 50% growth inhibition concentration (GI50), the 50% lethal concentration (LC50) and the total growth inhibition (TGI), compared to the values of untreated control cells.
# To characterize the selectivity of NSC745885 and NSC757963 further among the different types of cancer, we determined their selectivity ratios towards each cell line subpanel used in the cytotoxicity experiments. […] The promising activity of this compound is evident from the small mean GI50 values. […] The strongest activity was towards the leukemia subpanel and the least one was towards the colon cancer subpanel. […] The strongest activity was towards the melanoma subpanel and the least one was towards the colon cancer subpanel.
# All cell lines were published before.
# OVCAR-3 = test: cells; details: Homo sapiens, OVCAR-3, read-out: mean log10 of the GI50 values (converted)
# [6] = Homo sapiens, Fig 7, read-out: mean log10 of the GI50 values (converted)
# [7] = Homo sapiens, five-dose, read-out: GI50
# [8] = Homo sapiens, five-dose, read-out: LC50 (the source's name)
# [9] = Homo sapiens, read-out: LC50 (the source's name)
smiles,measurement,setting,value
O=C1c2ccccc2C(=O)c2c1cc(Cl)c1nsnc21 [NSC757963],GI50,MOLT-4; [6],0.437 µM
same,GI50,MOLT-4; [7],0.46 µM
same,CC50,MOLT-4; [8],> 100 µM
same,TGI,MOLT-4; five-dose,26.7 µM
same,GI50,HOP-62; [6],3.89 µM
same,GI50,HOP-62; [7],4.95 µM
same,CC50,HOP-62; [8],43.3 µM
same,TGI,HOP-62; five-dose,17.3 µM
same,GI50,NCI-H322M; [6],30.9 µM
same,GI50,NCI-H322M; [7],18.6 µM
same,CC50,NCI-H322M; [8],71 µM
same,TGI,NCI-H322M; five-dose,36.3 µM
same,GI50,HCT-116; [6],2.45 µM
same,GI50,HCT-116; [7],3.45 µM
same,CC50,HCT-116; [8],35.3 µM
same,TGI,HCT-116; five-dose,11.8 µM
same,GI50,"HT29; Homo sapiens, HT-29, Fig 7, read-out: mean log10 of the GI50 values (converted)",19.5 µM
same,GI50,"HT29; Homo sapiens, HT-29, five-dose, read-out: GI50",19.2 µM
same,CC50,"HT29; Homo sapiens, HT-29, five-dose, read-out: LC50 (the source's name)",98.2 µM
same,TGI,HT29; five-dose,43.4 µM
same,GI50,SF-539; [6],9.12 µM
same,GI50,SF-539; [7],8.23 µM
same,CC50,SF-539; [8],50.8 µM
same,TGI,SF-539; five-dose,21.6 µM
same,GI50,"LOX IMVI; Homo sapiens, LOXIMVI, Fig 7, read-out: mean log10 of the GI50 values (converted)",1.74 µM
same,GI50,LOX IMVI; [7],1.91 µM
same,CC50,LOX IMVI; [8],19.7 µM
same,TGI,LOX IMVI; five-dose,5.21 µM
same,GI50,MALME-3M; [6],12.6 µM
same,GI50,MALME-3M; [7],15.9 µM
same,CC50,MALME-3M; [8],59.1 µM
same,TGI,MALME-3M; five-dose,30.7 µM
same,GI50,"IGROV1; Homo sapiens, IGROV-1, Fig 7, read-out: mean log10 of the GI50 values (converted)",2.51 µM
same,GI50,"IGROV1; Homo sapiens, IGROV-1, five-dose, read-out: GI50",3.3 µM
same,CC50,"IGROV1; Homo sapiens, IGROV-1, five-dose, read-out: LC50 (the source's name)",45.7 µM
same,TGI,IGROV1; five-dose,15.6 µM
same,GI50,NCI/ADR-RES; [6],3.09 µM
same,GI50,NCI/ADR-RES; [7],3.12 µM
same,CC50,NCI/ADR-RES; [8],> 100 µM
same,TGI,NCI/ADR-RES; five-dose,18.8 µM
same,GI50,ACHN [1]; [6],2 µM
same,GI50,ACHN [1]; [7],2 µM
same,CC50,ACHN [1]; [8],7.74 µM
same,TGI,ACHN [1]; five-dose,3.93 µM
same,GI50,TK-10; [6],22.9 µM
same,GI50,TK-10; [7],24.1 µM
same,CC50,TK-10; [8],64.1 µM
same,TGI,TK-10; five-dose,39.3 µM
same,GI50,DU-145 [2]; [6],14.1 µM
same,GI50,DU-145 [2]; [7],14.2 µM
same,CC50,DU-145 [2]; [8],52.2 µM
same,TGI,DU-145 [2]; five-dose,27.2 µM
same,TGI,U251,3.9 µM
same,GI50,"U251; Homo sapiens, U-251",1.9 µM
same,CC50,"U251; Homo sapiens, U-251, read-out: LC50 (the source's name)",8.1 µM
same,TGI,A549,43.0 µM
same,GI50,A549; Homo sapiens,20 µM
same,CC50,A549; [9],95 µM
same,TGI,DMS273,4.1 µM
same,GI50,"DMS273; Homo sapiens, DMS-273",2.1 µM
same,CC50,"DMS273; Homo sapiens, DMS-273, read-out: LC50 (the source's name)",8.1 µM
same,TGI,DMS114,2.5 µM
same,GI50,"DMS114; Homo sapiens, DMS-114",1 µM
same,CC50,"DMS114; Homo sapiens, DMS-114, read-out: LC50 (the source's name)",6.1 µM
same,TGI,ACHN [3],3.4 µM
same,GI50,ACHN [3]; Homo sapiens,1.8 µM
same,CC50,ACHN [3]; [9],6.5 µM
same,TGI,MKN7,3.6 µM
same,GI50,"MKN7; Homo sapiens, MKN-7",1.7 µM
same,CC50,"MKN7; Homo sapiens, MKN-7, read-out: LC50 (the source's name)",7.4 µM
same,TGI,MKN74,4.2 µM
same,GI50,"MKN74; Homo sapiens, MKN-74",2.1 µM
same,CC50,"MKN74; Homo sapiens, MKN-74, read-out: LC50 (the source's name)",8.4 µM
same,TGI,DU-145 [4],6.3 µM
same,GI50,DU-145 [4]; Homo sapiens,2.5 µM
same,CC50,DU-145 [4]; [9],23 µM
same,selectivity ratios of the JFCR subpanels (for NSC745885 except melanoma),[5],less than 3
same,GI50,"[5]; JFCR Breast Cancer, read-out: Mean GI50 of subpanel",1.72 µM
same,GI50,"[5]; JFCR CNS Cancer, read-out: Mean GI50 of subpanel",2 µM
same,GI50,"[5]; JFCR Colon Cancer, read-out: Mean GI50 of subpanel",5.94 µM
same,GI50,"[5]; JFCR Lung Cancer, read-out: Mean GI50 of subpanel",5.86 µM
same,GI50,"[5]; JFCR Melanoma, read-out: Mean GI50 of subpanel",1.9 µM
same,GI50,"[5]; JFCR Ovarian Cancer, read-out: Mean GI50 of subpanel",2.08 µM
same,GI50,"[5]; JFCR Prostate Cancer, read-out: Mean GI50 of subpanel",2.05 µM
same,GI50,"[5]; JFCR Renal Cancer, read-out: Mean GI50 of subpanel",1.75 µM
same,GI50,"[5]; JFCR Stomach Cancer, read-out: Mean GI50 of subpanel",1.97 µM
same,GI50,"[5]; all JFCR subpanels, read-out: mean GI50 values of the JFCR subpanels, range",1.72 to 5.9 µM
same,GI50,"[5]; equivalent to MG-MID, read-out: Mean GI50 of all JFCR-39 cell line panels",3.15 µM
same,GI50,"[5]; five-dose, read-out: JFCR-39 GI50 values, range over cell lines",1 to 21 µM
same,Selectivity ratio,[5]; JFCR Breast Cancer,1.83
same,Selectivity ratio,[5]; JFCR CNS Cancer,1.58
same,Selectivity ratio,[5]; JFCR Colon Cancer,0.53
same,Selectivity ratio,[5]; JFCR Lung Cancer,0.54
same,Selectivity ratio,[5]; JFCR Melanoma,1.66
same,Selectivity ratio,[5]; JFCR Ovarian Cancer,1.52
same,Selectivity ratio,[5]; JFCR Prostate Cancer,1.54
same,Selectivity ratio,[5]; JFCR Renal Cancer,1.8
same,Selectivity ratio,[5]; JFCR Stomach Cancer,1.6
same,GI50,OVCAR-3,1.86 µM
